According to publication PMC5411959, “Potential Antiosteoporotic Natural Product Lead Compounds That Inhibit 17β-Hydroxysteroid Dehydrogenase Type 2” (Journal of Natural Products, 2017):

Tests used:
[1] = Compound stability in the test system (repeated and prolonged incubation, thawing-freezing cycles); format: physicochemical; details: prolonged incubation, IC50 in weeks 1 and 3, thawing-freezing cycles
Source text: extent these PAINS should be excluded from further research. Much more data is needed to finally provide directions for the use of PAINS filters4.
Besides these general aspects of PAINS, there are of course many arguments about curcumin itself as a hit. We are aware of the compound’s many reported bioactivities observed in in vitro studies and additionally of its very poor bioavailability. However, this study is a proof of concept study identifying many natural products inhibiting 17β-HSD2 when there is direct access to the binding site and we categorize curcumin as one of them. Why? A very recent analysis of curcumin data […]
Criterion 1. Look for evidence of compound stability in assay buffer/media, including when molecular models are invoked as supporting evidence of target engagement.
We observed no significant changes in inhibition in the experimental repetition also when the incubation time was prolonged. Actually, the assay duration is only 10 minutes and the compound has direct access to the binding site when using cell […]
Criterion 2. Look for the presence of detergent and thiol-scavenging reagents in biochemical assays to mitigate the impact of chemical aggregation and nonspecific thiol reactivity. Are/were any additional counterscreens performed to rule out these phenomena? […]
reactivity would alter the enzymes activities. Also this has not been observed.

human 17β-HSD2 = biological target: T1, human 17β-HSD2 (Homo sapiens, UniProt P37059); test: 17β-HSD2 activity assay using lysates of HEK-293 cells expressing the recombinant human enzyme; format: biochemical; details: for IC50: HEK-293 lysates, 200 nM estradiol, 500 μM NAD+, 10 min 37 °C;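 as to all read-outs here: conversion of tritium-labelled estradiol (200 nM, with 500 µM NAD+, 10 min) quantified after TLC separation by scintillation counting, at least three independent measurements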
T1 construct: expressed in transfected cells; host or cells: HEK-293 (ATCC), used as cell lysate
T1 sequence (P37059 1-387): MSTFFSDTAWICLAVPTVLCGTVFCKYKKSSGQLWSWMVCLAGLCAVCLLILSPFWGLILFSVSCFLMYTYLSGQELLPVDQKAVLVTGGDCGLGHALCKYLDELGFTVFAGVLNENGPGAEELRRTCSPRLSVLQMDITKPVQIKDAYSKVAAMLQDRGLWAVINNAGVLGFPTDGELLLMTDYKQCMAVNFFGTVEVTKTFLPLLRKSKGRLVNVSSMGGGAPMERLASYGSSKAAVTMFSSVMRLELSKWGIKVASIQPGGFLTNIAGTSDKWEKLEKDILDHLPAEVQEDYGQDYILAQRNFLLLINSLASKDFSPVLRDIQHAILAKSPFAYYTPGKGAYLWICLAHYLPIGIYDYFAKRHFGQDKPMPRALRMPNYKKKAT

human 17β-HSD1 = biological target: T2, human 17β-HSD1 (Homo sapiens, UniProt P14061); test: 17β-HSD1 activity assay using lysates of HEK-293 cells expressing the recombinant human enzyme; format: biochemical; details: for selectivity factor: 17β-HSD1 versus 17β-HSD2; for 17β-HSD1 inhibition (in words; n.i. = no inhibition): screened at 20 μM; for IC50: HEK-293 lysates, 200 nM estrone, 500 μM NADPH
T2 construct: expressed in transfected cells; host or cells: HEK-293 (ATCC), used as cell lysate
T2 sequence (P14061 1-328): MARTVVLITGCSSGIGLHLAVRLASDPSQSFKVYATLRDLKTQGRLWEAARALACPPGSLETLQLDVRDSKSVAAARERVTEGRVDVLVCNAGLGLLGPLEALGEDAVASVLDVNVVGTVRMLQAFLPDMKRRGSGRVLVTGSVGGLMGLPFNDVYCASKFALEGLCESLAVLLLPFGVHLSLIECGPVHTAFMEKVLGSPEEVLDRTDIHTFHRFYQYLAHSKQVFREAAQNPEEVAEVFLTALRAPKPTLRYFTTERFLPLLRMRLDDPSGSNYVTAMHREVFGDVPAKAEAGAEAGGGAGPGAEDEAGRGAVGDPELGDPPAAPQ

17β-HSD = tested on: 17β-HSD; set-up: method as in PMID 11731908; details: cited from earlier work
human ERα = tested on: human ERα; set-up: method as in PMID 25106881; details: reported; read-out: ERα activation EC50; cited from earlier work

Row | Structure (SMILES) | IC50 (human 17β-HSD2) | selectivity factor (human 17β-HSD1) | 17β-HSD1 inhibition (in words; n.i. = no inhibition) (human 17β-HSD1) | IC50 (human 17β-HSD1) | further results
1 | COc1cc(/C=C/C(=O)CC(=O)/C=C/c2ccc(O)c(OC)c2)ccc1O [compound 3, curcumin] | 1730 ± 200 nM | ∼12 | – | – | stability in the test system [1]: seemed to be stable; IC50 values with 0.1% Triton-X100 added, versus absence of detergent (human 17β-HSD2; 0.1% Triton-X100 in reaction mixture): comparable; remaining activity at 20 µM (human 17β-HSD1; read-out: 17β-HSD1 remaining activity at 20 μM): 52.2 ± 7.1%
2 | O=C(Cc1ccc(O)c(Cl)c1)NCCc1c[nH]c2ccccc12 [compound 17, N-(2-(1H-indol-3-yl)ethyl)-2-(3-chloro-4-hydroxyphenyl)acetamide] | 980 ± 240 nM | – | n.i. | – | –
3 | O=C(Cc1ccc(O)c(Cl)c1)NCCc1ccccc1 [compound 13, 2-(3-chloro-4-hydroxyphenyl)-N-phenethylacetamide] | 1570 ± 160 nM | – | n.i. | – | –
4 | COc1cc(C[C@@H](C)[C@H](C)Cc2ccc(O)c(OC)c2)ccc1O [compound 4, (−)-dihydroguaiaretic acid] | 940 ± 20 nM | 8 | – | 7700 ± 2200 nM | effect on 17β-HSD activity in placenta microsomes (17β-HSD): no effects; selectivity over 17β-HSD1 (human 17β-HSD1; 17β-HSD2 over 17β-HSD1): ≥ 8 fold
5 | O=c1c(-c2ccc(O)cc2O)coc2cc(O)cc(O)c12 [compound 9, 2′-hydroxygenistein] | 2030 ± 370 nM | 0.5 | – | 1090 ± 60 nM | EC50 (human ERα): 6100 nM; classification (17β-HSD2 inhibition) (human 17β-HSD2; flavonoid SAR model, Table 4): active
6 | CCOC(=O)c1ccc(O)c(OC)c1 [compound 12, ethyl vanillate] | 1280 ± 260 nM | – | n.i. | – | –
